Where “and” joins values, the source holds several entries; their conditions need not be identical. Equal values may be shown once. Entries after “also recorded” stand apart in the source; their conditions may differ. Read-outs that look alike come from different tables or passages of the source. One block for each compound: values may come before it.
How the values were obtained:
P2X7 [1] = target: T1, P2X7 (Mus musculus, UniProt Q9Z1M0); experiment: Fixed-time ethidium+ uptake assay (flow cytometry) in J774 macrophage cells; type: cell-based, murine; conditions: for ethidium+ uptake compared to absence of nucleotide: 5 min
T1 construct: endogenous in cells; host or cells: EOC13 murine microglial cell line
T1 sequence (Q9Z1M0 1-595): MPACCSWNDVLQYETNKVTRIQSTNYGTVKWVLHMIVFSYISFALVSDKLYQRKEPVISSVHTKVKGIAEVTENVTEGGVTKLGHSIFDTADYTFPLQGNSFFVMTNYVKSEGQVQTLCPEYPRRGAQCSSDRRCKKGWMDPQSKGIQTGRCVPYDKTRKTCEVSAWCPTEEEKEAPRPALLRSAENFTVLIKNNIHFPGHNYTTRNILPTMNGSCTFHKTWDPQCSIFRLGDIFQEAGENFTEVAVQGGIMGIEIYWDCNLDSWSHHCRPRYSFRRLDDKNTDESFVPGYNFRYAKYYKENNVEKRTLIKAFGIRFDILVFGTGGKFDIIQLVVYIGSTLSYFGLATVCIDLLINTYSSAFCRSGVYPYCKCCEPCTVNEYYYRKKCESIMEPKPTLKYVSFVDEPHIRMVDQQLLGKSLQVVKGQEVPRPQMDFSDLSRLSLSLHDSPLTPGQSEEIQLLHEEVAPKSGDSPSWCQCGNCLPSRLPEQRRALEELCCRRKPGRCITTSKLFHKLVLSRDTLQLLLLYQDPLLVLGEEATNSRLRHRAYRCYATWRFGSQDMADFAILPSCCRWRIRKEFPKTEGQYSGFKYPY

P2X7 [2] = target: T1, P2X7; experiment: Fixed-time ethidium+ uptake assay (flow cytometry) in EOC13 microglial cells; type: cell-based, murine; conditions: for impairment of ATP-induced ethidium+ uptake: 15 min preincubation
EOC13 cells [3] = experiment: NO formation assay (DAF-FM DA, flow cytometry) in EOC13 cells; type: cell-based, murine
Description: The medium was removed, and the cells were washed once.

P2X7 [4] = test system: P2X7; parameters: method as in PMID 18657557; conditions: read-out: half maximal effective concentration (EC50) of ATP for P2X7 activation; cited from earlier work
EOC13 cells [5] = experiment: cells; type: cell-based
Method: (§1) Following the 24 h incubations, cells were harvested from wells using 0.05% trypsin (5 min, 37°C) and washed once with Annexin-V binding medium (NaCl medium containing 5 mM CaCl2). Cells were then incubated with Annexin-V binding medium containing Annexin-V-Fluorescein and 7AAD at room temperature protected from light for 15 min. […] Quadrant markers were used to determine the percentage of Annexin-V^+/7AAD^−, Annexin-V^−/7AAD^+, and Annexin-V^+/7AAD^+ cells. In some experiments, cells prior to harvesting were visualised by DIC imaging to examine cell morphology, and DIC images captured as outlined in Section 2.8.

EOC13 cells [6] = test system: EOC13 cells
P2X7 [7] = target: T1, P2X7; experiment: Fixed-time YO-PRO-1 2+ uptake assay (flow cytometry) in EOC13 microglial cells; type: cell-based, murine; conditions: 10 μM
EOC13 cells [8] = experiment: Cell viability assessed by forward and side scatter (gated viable cells); type: cell-based, murine; conditions: for cell viability (forward and side scatter): 10 μM; for reduction of the amount of gated viable cells: ethidium+ uptake assay
EOC13 cells [9] = experiment: Cell morphology by DIC imaging; type: cell-based, murine
Method: as §1

EOC13 cells [10] = experiment: cells; conditions: Mus musculus, read-out: inhibition of ATP-induced ROS formation, EOC13 cells, 40 mM NAC, 30 min preincubation, 1.4 mM ATP, NaCl medium
[11] = read-out: IC50 for impairment of 1 mM ATP-induced ethidium+ uptake, J774 cells, NaCl medium, 15 min preincubation, 1 mM ATP 5 min, 37°C
[12] = EOC13 cells, antagonist 30 μM, 1 mM ATP

ethidium+ uptake compared to absence of nucleotide (P2X7 [1]; J774 cells, 0.1 mM BzATP): induced significant ethidium^+ uptake
ethidium+ uptake compared to absence of nucleotide (P2X7 [2]; EOC13 cells, 0.1 mM BzATP, 5 min): induce significant ethidium^+ uptake
Compound: 2′(3′)-O-(4-benzoylbenzoyl) ATP [BzATP]

inhibition of ATP-induced ethidium+ uptake (P2X7 [1]; J774 cells, antagonist 100 μM, 1 mM ATP): completely inhibited
IC50 (P2X7 [1]; [11]): 7.9 ± 0.4 µM
impairment of ATP-induced ethidium+ uptake (P2X7 [2]; EOC13 cells, antagonist 100 μM, 1 mM ATP): 90 ± 1%
Compound: Clc1cccc(-c2nnnn2Cc2cccnc2)c1Cl [A438079]

Compound: Nc1ncnc2c1ncn2[C@@H]1O[C@H](COP(=O)(O)OP(=O)(O)OP(=O)(O)O)[C@@H](O)[C@H]1O [ATP, adenosine-5′-triphosphate]
NO formation compared to absence of ATP (EOC13 cells [3]; 1.4 mM ATP, 15 min, NaCl medium): induced significant NO formation
EC50 (P2X7 [4]): 100 to 300 µM
ethidium+ uptake compared to absence of nucleotide (P2X7 [1]; J774 cells, 1 mM ATP): induced significant ethidium^+ uptake
ethidium+ uptake compared to absence of nucleotide (P2X7 [2]; EOC13 cells, 1 mM ATP, 5 min): induce significant ethidium^+ uptake
EC50 (P2X7 [2]; EOC13 cells, NaCl medium, 5 min, 37°C, read-out: EC50 for induction of ethidium+ uptake): ~130 µM and 130 µM
duration of transient ATP incubation giving significant cell death (EOC13 cells [5]; EOC13 cells, 2 mM ATP, then fresh medium 24 h): 30 or 60 min but not 15 min and 30–60 but not 15 min
ATP concentrations giving significantly higher total cell death than absence of ATP (EOC13 cells [5]; EOC13 cells, complete DMEM medium, 24 h): 2 or 3 mM ATP but not 1 mM ATP and 2 or 3 but not 1 mM ATP
ROS formation compared to absence of ATP (EOC13 cells [6]; 575 μM ATP4- (1.4 or 2 mM ATP), NaCl medium in absence and presence of 1 mM Ca2+): induced significant ROS formation
ROS formation compared to absence of ATP (EOC13 cells [6]; 1.4 mM ATP, NaCl and KCl media): induced significant ROS formation
ROS formation compared to absence of ATP (EOC13 cells [6]; 1.4 mM ATP, NaCl medium, 15 min (NAC experiment control)): induced significant ROS formation
ROS formation compared to absence of ATP (EOC13 cells [6]; 1.4 mM ATP, absence and presence of 100 μM EGTA): significant but similar amounts of ROS formation
MFI of ROS formation (EOC13 cells [6]; 2 mM ATP, NaCl medium with 1 mM Ca2+, 15 min, absence of ATP 5.18 ± 0.06): 16.3 ± 0.6
ATP concentrations inducing significant ROS formation (EOC13 cells [6]; complete DMEM medium, 15 min): 2 or 3 but not 1 mM ATP

Compound: O=C(CC12CC3CC(CC(C3)C1)C2)Nc1cccc2nc(NCCNCCO)ccc12 [AZ10606120]
inhibition of ATP-induced NO formation (EOC13 cells [3]; 10 μM, 15 min preincubation, 1.4 mM ATP): 82 ± 11%
effect on basal NO formation (EOC13 cells [3]; 10 μM, absence of ATP): did not significantly alter
inhibition of ATP-induced ethidium+ uptake (P2X7 [1]; J774 cells, antagonist 10 μM, 1 mM ATP): completely inhibited
IC50 (P2X7 [1]; [11]): 1 ± 0.1 µM
inhibition of ATP-induced YO-PRO-1 2+ uptake (P2X7 [7]; 15 min preincubation, 1 mM ATP): complete inhibition
effect on basal YO-PRO-1 2+ uptake (P2X7 [7]; absence of ATP): did not significantly alter
inhibition of ATP-induced ROS formation (EOC13 cells [6]; 10 μM, 15 min preincubation, 2 mM ATP, NaCl medium with 1 mM Ca2+): complete inhibition; also recorded: completely impaired
inhibition of ATP-induced ROS formation (EOC13 cells [6]; 10 μM, 15 min preincubation, 2 mM ATP, complete DMEM medium): completely inhibited
effect on basal ROS formation (EOC13 cells [6]; 10 μM, absence of ATP): did not significantly alter
cell viability (forward and side scatter) (EOC13 cells [8]; NO assay): did not significantly alter
cell viability (forward and side scatter) (EOC13 cells [8]; ROS assay): did not significantly alter

type of antagonism at the ATP concentration used (P2X7 [1]; J774 cells, 1 mM ATP): partial antagonists
IC50 (P2X7 [1]; [11]): 1.5 ± 0.1 µM
effect on basal ethidium+ uptake (P2X7 [2]; EOC13 cells, absence of ATP, antagonist at concentration used (10-100 μM)): significantly altered
impairment of ATP-induced ethidium+ uptake (P2X7 [2]; [12]): 99 ± 1%
Compound: O=C1CSC(=O)N1C(CCc1ccncc1)COc1ccc(-c2cccc([N+](=O)[O-])c2)cc1 (centres unmarked) [AZ11645373]
reduction of the amount of gated viable cells (EOC13 cells [8]; 30 μM): ~ 30%

IC50 (P2X7 [1]): 1.8 ± 0.2 µM
type of antagonism at the ATP concentration used (P2X7 [1]; J774 cells, 1 mM ATP): partial antagonists
impairment of ATP-induced ethidium+ uptake (P2X7 [2]; [12]): 75 ± 2%
Compound: CCOc1ccc(Nc2ccc(/C(=C3C=C/C(=[N+](/CC)Cc4cccc(S(=O)(=O)[O-])c4)C=C/3C)c3ccc(N(CC)Cc4cccc(S(=O)(=O)O)c4)cc3C)cc2)cc1 [BBG, Brilliant Blue G]

Compound: c1ccc2c(c1)[I+]c1ccccc1-2 [DPI, diphenyleneiodonium]
cell death on preincubation (EOC13 cells [6]; 5–40 μM DPI, 30 min preincubation, data not shown): high amounts of cell death; also recorded: induced the death of EOC13 microglia

Compound: CC(=O)N[C@@H](CS)C(=O)O [NAC, N-acetyl-L-cysteine]
inhibition at 40000 µM (P2X7 [2]; P2X7, read-out: inhibition of ATP-induced ethidium+ uptake (pore formation)): 30 ± 2%
effect on percentage of ATP-induced cell death (EOC13 cells [5]; EOC13 cells, 40 mM NAC, 75 and 30 min preincubation followed by 15 and 60 min 2 mM ATP, respectively): had no effect
inhibition at 40000 µM (EOC13 cells [5]; Mus musculus, read-out: inhibition of ATP-induced cell death): 99 ± 6%
inhibition of ATP-induced ROS formation (EOC13 cells [6]; 40 mM NAC, 30 min preincubation, 1.4 mM ATP, NaCl medium): 74%
reduction of the amount of gated viable cells (EOC13 cells [8]; incubation with 40 mM NAC and ATP together, not either compound alone): ~ 40%
effect on ATP-associated morphological changes (DIC) (EOC13 cells [9]; 40 mM NAC 90 min, 2 mM ATP final 45 min, then 24 h): prevented the morphological changes associated with ATP incubation
effect on cell morphology (DIC) (EOC13 cells [9]; ROS assay conditions, 40 mM NAC with or without 1.4 mM ATP): not altered by NAC
effect on cell morphology (DIC), NAC alone (EOC13 cells [9]; cell death assay conditions, 40 mM NAC 90 min, then 24 h): no effect on cell morphology
inhibition at 40000 µM (EOC13 cells [10]): 73.7 ± 0.3%

— PMC3568910, “P2X7 Receptor Activation Induces Reactive Oxygen Species Formation and Cell Death in Murine EOC13 Microglia” (Mediators of Inflammation, 2013)
